Laboratory results as given in PubChem BioAssay (NCI).
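1) Cells in 96-well plates. 2) Compound, 48 h, 5 concentrations. 3) Linear interpolation between surrounding doses. 4) Unreached endpoint = highest concentration. GI50 marks 50% less growth. At the TGI there is no net growth.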

Experiments:
Test in all cases: growth of human tumour cells (NCI), 48 h
A549 NSCLC = system: A549 NSCLC
HCT-15 colon = system: HCT-15 colon
LOX IMVI melanoma = system: LOX IMVI melanoma
TK-10 renal = system: TK-10 renal
RXF 393 renal = system: RXF 393 renal
MALME-3M melanoma = system: MALME-3M melanoma
M14 melanoma = system: M14 melanoma
OVCAR-8 ovarian = system: OVCAR-8 ovarian
HT29 colon = system: HT29 colon
MDA-MB-435 = system: MDA-MB-435

Compound	TGI (A549 NSCLC)	TGI (HCT-15 colon)	TGI (LOX IMVI melanoma)	TGI (TK-10 renal)	TGI (RXF 393 renal)	TGI (MALME-3M melanoma)	TGI (M14 melanoma)	TGI (OVCAR-8 ovarian)	TGI (HT29 colon)	GI50 (A549 NSCLC)	GI50 (MDA-MB-435)	TGI (MDA-MB-435)	GI50 (HCT-15 colon)	GI50 (LOX IMVI melanoma)	GI50 (TK-10 renal)	GI50 (RXF 393 renal)	GI50 (M14 melanoma)	GI50 (OVCAR-8 ovarian)	GI50 (HT29 colon)	GI50 (MALME-3M melanoma)
CCCCOC(=O)/C(CC(=O)C=C(C)C)=N\NS(=O)(=O)c1ccc(C)cc1	> 100 µM	> 100 µM	> 100 µM	> 100 µM	> 100 µM	> 100 µM	> 100 µM	> 100 µM	> 100 µM											
Nc1cc(N)c2nc(-c3ccccc3)c(Nc3ccc(F)cc3)nc2c1	44.6 µM	38.1 µM	18 µM	35.6 µM	28.8 µM		43.3 µM	30.3 µM	35.3 µM	17.2 µM	7.34 µM	20.8 µM	12.7 µM	4.81 µM	17.3 µM	8710 nM	16.3 µM	12.4 µM	18.6 µM	
CC(=O)/C=C1/c2ccccc2N(C(C)=O)C1O (stereo not given)	> 100 µM	> 100 µM			> 100 µM		> 100 µM	> 100 µM	> 100 µM											
CC1C(=O)N=C2C(=CN(Cc3ccccc3)c3ccccc32)C(=O)N1C (stereo not given)	> 100 µM	> 100 µM		> 100 µM	> 100 µM	> 100 µM	> 100 µM	> 100 µM	> 100 µM			> 100 µM								
Cc1ccccc1C(C#N)/C(=N/NC(=O)c1cc2ccccc2cc1O)C(=O)Nc1cccc(Cl)c1 (stereo not given)	> 100 µM	> 100 µM		> 100 µM		> 100 µM	> 100 µM	> 100 µM	> 100 µM											
c1ccc(-c2nc(Nc3ccc(-c4nc5ccccc5[nH]4)cc3)nc(N3CCOCC3)n2)cc1	4.01 µM			3.76 µM	2.12 µM	3.85 µM	2.9 µM	3.41 µM	2.19 µM	1.95 µM	1.76 µM	3.28 µM			2.15 µM	501 nM	1.34 µM	1.72 µM	0.646 µM	2 µM
O=C(O)Cc1cc(=O)oc2cc(O)c(Cl)cc12	> 100 µM	> 100 µM	> 100 µM	> 100 µM		> 100 µM	> 100 µM	> 100 µM	> 100 µM											
COC(=O)c1c/c(=N\NC(=O)CC(=O)Nc2ccccc2Cl)c2ccccc2o1	> 100 µM	> 100 µM	> 100 µM	> 100 µM			> 100 µM	> 100 µM	> 100 µM											
CCCOc1ccc(/C=C/c2cc(OC)c(OC)c(OC)c2)cc1	> 100 µM	15.1 µM	> 50.5 µM	> 100 µM	0.904 µM	84.8 µM	> 100 µM	22.3 µM	3.93 µM											
C[C@]12CC[C@H]3[C@@H](CC=C4C[C@@H](O)CC[C@@]43C)[C@@H]1C/C(=C\c1cccc(OCCN3CCOCC3)c1)[C@@H]2O	> 100 µM	> 100 µM	> 100 µM	> 100 µM		65.1 µM	69.2 µM	> 100 µM	> 100 µM	> 100 µM	85.1 µM	> 100 µM	38.9 µM	> 100 µM	> 100 µM		24.3 µM	> 100 µM	7.36 µM	29.8 µM
COC(=O)c1nc(-c2ccc(Cl)c(Cl)c2)nc2ccccc12	> 100 µM	> 100 µM	> 100 µM	> 83.5 µM	42.9 µM	> 100 µM	> 100 µM	> 100 µM	> 100 µM											
CCCCCCN1C(=O)/C(=c2\sc3n(c2=O)C2C(NN=3)N(CC)C(=O)N2CC)c2ccccc21 (stereo not given)	> 50 µM	> 50 µM	> 50 µM	> 50 µM	3.98 µM		> 50 µM	> 50 µM	> 50 µM	1.47 µM	0.972 µM	2.16 µM	1.62 µM	1.53 µM	1.72 µM	1200 nM	3.24 µM	1.47 µM	1.5 µM	
CCNC(=O)C(O)C1(O)CCC2[C@@H]3CCC4=CC(=O)C=C[C@]4(C)C3[C@@H](O)C[C@@]21C (stereo not given in full)	> 100 µM	> 100 µM	> 100 µM	> 100 µM	> 100 µM	> 100 µM	> 100 µM	> 100 µM	> 100 µM											
N#CCCc1nc2ccc(Br)cc2c(=O)n1-c1ccc(O)c([N+](=O)[O-])c1	> 100 µM	38.3 µM	35.5 µM	> 100 µM	32.4 µM	33.3 µM	44.7 µM	> 100 µM	> 100 µM											
CCOC(=O)c1sc(=S)c2c(C(=O)c3ccccc3)c(C(=O)c3ccccc3)sc2c1C(=O)OCC	> 100 µM	> 100 µM	> 100 µM	63.5 µM	> 100 µM		> 100 µM	> 100 µM	> 100 µM	5.17 µM	3.34 µM	9.66 µM	4.1 µM	5.08 µM	3.17 µM	4480 nM	5.56 µM	3.44 µM	6.9 µM	
Clc1ccc(C2=Nc3ccccc3SC(c3ccc(Cl)c(Cl)c3)C2)c(Cl)c1 (stereo not given)	43.6 µM	27.3 µM	21.6 µM	36.9 µM	30.5 µM	29.9 µM	30.1 µM	31.1 µM	28.5 µM											
O=[N+]([O-])c1ccc(Cc2nc3ccccc3s2)cc1	> 100 µM	> 100 µM		> 100 µM	> 100 µM	> 100 µM	> 100 µM	> 100 µM	> 100 µM											
CSC(=S)N(C)c1nc(=[N+](C)C)ss1	> 100 µM	> 100 µM		> 100 µM	> 100 µM	> 100 µM	> 100 µM	> 100 µM	> 100 µM											
O=S(=O)(O)C(F)(F)C(F)(F)C(F)(F)C(F)(F)F	> 100 µM	> 100 µM	> 100 µM	> 100 µM	> 100 µM	> 100 µM	> 100 µM	> 100 µM	> 100 µM											
Cc1ccc2sc3cc(=O)cc(C)c-3nc2c1	> 100 µM	> 100 µM		> 100 µM			> 100 µM	> 100 µM	> 100 µM											
